# Activity calls are given as the source filed them.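 Rule for the calls: active = less UV crosslinking of translation factor eIF4H to capped RNA at 100 µM than solvent-only control; inactive = the rest.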
# Target: Eukaryotic translation initiation factor 4H (Homo sapiens) (UniProt Q15056)
# Experiment: eIF4H binding to capped mRNA, inhibitors, SAR follow-up, orthogonal assay for translation initiation inhibitor project, biochemical, UV crosslinking, autoradiography (AID 449744)
row,SMILES,outcome
1,COc1cc(C=NNC(=O)c2ccccc2O)ccc1OCC(=O)Nc1ccccc1,inactive
2,CCn1c(=O)n(CC)c2cc(NC(=O)C(C)c3ccccc3)c(Br)cc21 (configuration not stated),inactive
3,COc1ccc(N2Cc3cccc(C(=O)NC(C)CCc4ccco4)c3C2=O)cc1 (configuration not stated),inactive
4,O=C(Nc1ccccc1)C1CCN(C(=O)c2cccs2)CC1,inactive
5,CCOC(=O)c1ccc2c(c1)N(CC)C(=O)c1ccccc1S2,inactive
6,COc1ccc(N2Cc3cccc(C(=O)N4CCN(C(=O)c5ccco5)CC4)c3C2=O)cc1,inactive
7,CC(C)c1ccc(OC(=O)c2cccc(S(=O)(=O)N3CCN(C)CC3)c2)cc1,inactive
8,COC(=O)c1c(Sc2ccccc2)c2ccccc2n1C,inactive
9,CCc1nnc(NC(=O)CSc2ccc(-c3ccco3)nn2)s1,inactive
10,CC(C)NC(=O)C(C)N1CCN(S(=O)(=O)c2ccc3ccccc3c2)CC1 (configuration not stated),inactive
11,COc1cc(/C=N/NC(=O)c2ccccc2)ccc1OCC(=O)Nc1ccc([N+](=O)[O-])cc1,inactive
12,CCN1CCN(S(=O)(=O)c2ccc(Cl)c(C(=O)Nc3ccc(C(=O)N(CC)CC)cc3)c2)CC1,inactive
13,CCOC(=O)c1ccc2c(c1)N(C)C(=O)c1ccccc1S2,inactive
14,CCOC(=O)N1CCC(NC(=O)c2cccc3c2C(=O)N(c2ccc(OC)cc2)C3)CC1,inactive
15,O=C(COc1ccc(C=NNC(=O)c2ccc(O)cc2)cc1)Nc1ccc([N+](=O)[O-])cc1,inactive
16,Cc1ccc(NC(=O)C2CCN(C(=O)c3cccs3)CC2)c(C)c1,inactive
17,COc1cc([N+](=O)[O-])ccc1NC(=O)COC(=O)c1ccc(NC(N)=O)cc1,inactive
18,O=C(Nc1cccc2ncccc12)c1ccccc1Cl,inactive
19,COc1cc([N+](=O)[O-])ccc1NC(=O)COC(=O)c1ccc2c(c1)NC(=O)CS2,inactive
20,Cc1ccc(OC(C)C(=O)Nc2ccc3c(c2)n(C)c(=O)n3C)c(C)c1 (configuration not stated),inactive
21,Cc1ccc(NC(=O)CN2C(=O)N/C(=C/c3ccccc3OCc3cccc(C(=O)O)c3)C2=O)cc1,inactive
22,O=C(Nc1cccc2ncccc12)c1ccc(Cl)cc1,inactive

# Reference: PubChem BioAssay AID449744 (Sanford-Burnham Center for Chemical Genomics, 2010)
